Here are results for 4 compounds from patent US20090099102A1, “Ginkgolides in the Treatment and Prevention of Ovarian Cancer” (priority 2005, published 2009).

“Also recorded” adds a separate entry of the source.

Data set [1] has as its system HOSE-E6E7 cells. Description: Cell proliferation (MTT) assay, HOSE-E6E7 cells. Type of data set: cell-based, human. The following applies: 10, 50 and 100 μM (extract: equivalent of ginkgolides), 72 h. How it is done: Immortalized normal human ovary epithelial cell (HOSEE6E7) and a serous type ovarian cancer cell lines ([…]) previously established in our laboratory (Tsao, et al., Exp. Cell Res. 218:499-507 (1995); Kim, et al., Jama 287:1671-1679 (2002)) were used in this study. Two mucinous ovarian cancer cell lines (RMUG-S and RMUG-L) were purchased from The Japanese Collection of Research Bioresource (Tokyo, Japan). RMUG-L cells were cultured in MCDB105/M199 medium as above, and RMUG-S cells were cultured in F-12 medium with 10% Fetal Bovine Serum and 1% antibiotic as above. Cells were maintained at 37° C. under 5% CO2 and 95% air in a high humidity chamber. Monolayer cells at 60-80% confluence were enzymatically removed using trypsin/EDTA and plated in 96 well flat-bottomed plates at concentration of 5×10^3 per well for HOSE-E6E7 cells, 1×10^3 per well for OVCA429 and RMUG-L, respectively. Treatments were added 24 hours after plating. […]
Methods for the cell proliferation and viability assays were adopted from MTT (Mosmann, J. Immunol. Methods 65:55-63 (1983), XTT (Scudiero et al., Cancer Res. 48:4827-4833, (1988)) and MTS (Cory, et al., Cancer Commun. 3: 207-212 (1991)), which developed as WST-1 (Roche Applied Science, Germany). Briefly, the tetrazolium salts are cleaved to formazan by cellular enzymes. An expansion in the number of viable cells results in an increase in the overall activity of mitochondrial dehydrogenases in the sample. This augmentation in enzyme activity leads to an increase in the amount of formazan dye formed, which directly correlates with the number of metabolically active cells in the culture. […] One hour after the addition of the solubilization solution, the contents of the wells were mixed and read by the 96-well plate scanning spectrophotometer (μQuant) and quantitative software (KC-junior, Bio-Tek Instruments, Inc.) at an absorbance of 630 nm for quantitative analysis. […] The cell proliferation rate was expressed as a percentage of the control, which had been treated with an equivalent volume of DMSO (as 100%). […]

Data set [2] has as its system RMUG-L cells. The experiment in a line: Cell proliferation (MTT) assay, mucinous cancer cells RMUG-L. Type of data set: cell-based, human. The conditions noted are these: 10, 50 and 100 μM (extract: equivalent of ginkgolides), 72 h. How it is done:
(§1) Immortalized normal human ovary epithelial cell (HOSEE6E7) and a serous type ovarian cancer cell lines (OVCA433) previously established in our laboratory (Tsao, et al., Exp. Cell Res. 218:499-507 (1995); Kim, et al., Jama 287:1671-1679 (2002)) were used in this study. Two mucinous ovarian cancer cell lines (RMUG-S and RMUG-L) were purchased from The Japanese Collection of Research Bioresource (Tokyo, Japan). RMUG-L cells were cultured in MCDB105/M199 medium as above, and RMUG-S cells were cultured in F-12 medium with 10% Fetal Bovine Serum and 1% antibiotic as above. Cells were maintained at 37° C. under 5% CO2 and 95% air in a high humidity chamber. Monolayer cells at 60-80% confluence were enzymatically removed using trypsin/EDTA and plated in 96 well flat-bottomed plates at concentration of 5×10^3 per well for HOSE-E6E7 cells, 1×10^3 per well for OVCA429 and RMUG-L, respectively. Treatments were added 24 hours after plating. Ten mM stock solutions of Ginkgo biloba, quercetin, kaempferol, ginkgolide A, and ginkgolide B, were prepared in DMSO and cells were treated with 10, 50 and 100 μM concentrations of each component. Concentration of standard Ginkgo biloba treatment was calibrated according to the fact that, the standard Ginkgo biloba mixture contains about 4-6% of total active terpene lactons, and the estimated average of the molecular weight of the mixture is about 300. An equal volume of DMSO (less than <1% concentration) was used as control treatment.
(§2) Methods for the cell proliferation and viability assays were adopted from MTT (Mosmann, J. Immunol. Methods 65:55-63 (1983), XTT (Scudiero et al., Cancer Res. 48:4827-4833, (1988)) and MTS (Cory, et al., Cancer Commun. 3: 207-212 (1991)), which developed as WST-1 (Roche Applied Science, Germany). Briefly, the tetrazolium salts are cleaved to formazan by cellular enzymes. An expansion in the number of viable cells results in an increase in the overall activity of mitochondrial dehydrogenases in the sample. This augmentation in enzyme activity leads to an increase in the amount of formazan dye formed, which directly correlates with the number of metabolically active cells in the culture. After 72 hours of treatment, 15 μl of the MTT dye solution was added to each well and the plates were incubated at 37° C. for 4 hours in a humidified chamber. After incubation, 100 μl of the Solubilization/Stop solution was added to each well. One hour after the addition of the solubilization solution, the contents of the wells were mixed and read by the 96-well plate scanning spectrophotometer (μQuant) and quantitative software (KC-junior, Bio-Tek Instruments, Inc.) at an absorbance of 630 nm for quantitative analysis. Data was collected from at least 3 separate experiments, and at least 8 repeats were performed for each individual treatment. The cell proliferation rate was expressed as a percentage of the control, which had been treated with an equivalent volume of DMSO (as 100%).
Logistic regression analysis was used to calculate the exposure odds ratio to estimate the relative risk (RR) for ovarian cancer associated with the use of any or a particular type of herbal remedy. Adjustment variables included age, study center, oral contraceptive (OC) use, parity, and Jewish ethnic background. […]

The test system of data set [3] is OVCA429 cells. The experiment in a line: Cell proliferation (MTT) assay, serous cancer cells OVCA429. Type of data set: cell-based, human. The following applies: for cell proliferation compared to the control treatments: p<0.0001; for inhibitory pattern in ovarian cancer cells (discussion): cell line not given. How it is done:
as §1, §2
Logistic regression analysis was used to calculate the exposure odds ratio to estimate the relative risk (RR) for ovarian cancer associated with the use of any or a particular type of herbal remedy. Adjustment variables included age, study center, oral contraceptive (OC) use, parity, and Jewish ethnic background. Additionally, we adjusted individually for categories of consumption of vitamin A, carotene, tomatoes and tomato sauce and juice, and raw carrots based upon previous work showing the importance of these foods and vitamins on ovarian cancer risk in our data (Cramer, et al., Int. J. Cancer 94:128-134 (2001)). For the data from the cell proliferation assay, linear regression models were applied to analyze mean OD values from the MTT assays across the different concentration treatments, adjusted for individual experiments. We used a partial F test to determine whether mean OD levels varied across the four concentrations (control, 10, 50, 100 μM). […]

Data set [4] deals with HOSE-E6E7 cells. Description: Cell cycle analysis, HOSE-E6E7. Type of data set: cell-based, human. The following applies: 100 μM, 24 h. How it is done: (§3) For the cell cycle analysis, ovarian cells were plated in 75 cm^2 flasks and treated with 100 μM of ginkgolide A and B; the control was treated with an equal amount of DMSO. After 24 and 48 hours, cells were harvested by trypsin digestion and followed by PBS washing and spun for 5 min at room temperature at 12,000 rpm. Cells were fixed with 70% ethanol (in PBS buffer) by suspending the cell pellet and incubated at room temperature for 5 minutes or at −20° C. for two days. The fixed cells were washed once with PBS and then treated with RNase A (50 ug/ml) at 37° C. for 30-60 min. After a single washing with PBS to remove RNase A, propidium iodide (25 μg/ml in PBS buffer) was added. Cells were subjected to analysis using a FACS Calibur Flow Cytometer (Becton Dickson, San Jose, Calif.). Each experiment was repeated at least three times and the cell cycle profiles and data were analyzed by ModFit LT software (Verity Software House, Inc., Topsham, Me.).

Data set [5] relates to OVCA429 cells. The experiment in a line: Cell cycle analysis (propidium iodide flow cytometry), OVCA429. Type of data set: cell-based, human. The conditions noted are these: for S-phase DNA contents / G0/G1 phase DNA: OVCA429, 100 μM; for cell cycle effect: serous type cancer cells. How it is done: as §3
The conditions of data set [6]: 10 young healthy volunteers; single oral dose of 80 mg Ginkgo biloba (EGb 761 formula); cited from earlier work.
Another data set concerns smooth muscle cell. The following applies: related to G1 to S phase blockage; cited from earlier work.
In another data set the test system is RMUG-S cells. The experiment in a line: Cell cycle analysis, RMUG-S. The following applies: after treatment. Type of data set: cell-based, human. How it is done: as §3
The subject of data set [7] is RMUG-L cells. The experiment in a line: Cell cycle analysis, RMUG-L. Type of data set: cell-based, human. The following applies: 48 h. How it is done:
as §3

The mark [8] stands for this setting: 48 h, control 43% (ginkgolide B), 36.5% (ginkgolide A).
Where [9] appears, read: 48 h, control 47.9% (ginkgolide B), 50.7% (ginkgolide A).

On to `C[C@@H]1C(=O)O[C@H]2C[C@@]34[C@H]5C[C@@H](C(C)(C)C)[C@]36[C@@H](OC(=O)[C@@H]6O)O[C@@]4(C(=O)O5)[C@]21O` [ginkgolide A], for which the entries for the “effect on cell proliferation (words)” value in the data set on HOSE-E6E7 cells [1], in the data set with RMUG-L cells [2] and in the data set with RMUG-L cells [2] (listed as Ginkgolide A) were “little effect”, “no effect” and “little effect”, respectively. In addition, in the data set on OVCA429 cells [3] (OVCA429, 50 and 100 μM, 72 h), the “cell proliferation compared to the control treatments” value is listed as “about 60%”. Besides, the “inhibitory pattern in ovarian cancer cells (discussion)” value (“inhibitory pattern” below) in the data set on OVCA429 cells [3] is recorded as “significant inhibitory pattern”. Also, the “effect on DNA content of G0/G1, S and G2/M phases” value in the data set on HOSE-E6E7 cells [4] is reported as “neither ginkgolide A nor ginkgolide B (100 μM) showed a significant effect”. In addition, the “S-phase DNA contents” value with OVCA429 cells [5] (setting [8]) amounted to 10.3%. Further, the “G0/G1 phase DNA” value with OVCA429 cells [5] (setting [9]) was 86.1%. In addition, in the data set on OVCA429 cells [5], the “cell cycle effect” value is listed as “cell cycle blockage at G0/G1 to S phase checking point”. Also, in data set [6], the average concentration measured was 15 ng/mL.

As to `CC1C(=O)OC2C(O)C34C5CC(C(C)(C)C)C36C(OC(=O)C6O)OC4(C(=O)O5)C12O` (stereo not shown) [ginkgolide B], in the data set with smooth muscle cell, the “inhibition of smooth muscle cell proliferation” value is “inhibit smooth muscle cell proliferation in a concentration dependent manner”. In addition, the “effect on cell proliferation (words)” value with HOSE-E6E7 cells [1] is “little effect”; in the data set on RMUG-L cells [2], “little effect; also recorded: no effect”. Moreover, in the data set with RMUG-S cells, the “changes in G0/G1, S-phase and M-phase DNA distribution” value is “no observed changes”. The “cell proliferation compared to the control treatments” value with OVCA429 cells [3] (OVCA429, 10, 50 and 100 μM, 72 h) was “about 60%”. Further, the “inhibitory pattern” value with OVCA429 cells [3] is “significant inhibitory pattern”. In the data set on HOSE-E6E7 cells [4], the “effect on DNA content of G0/G1, S and G2/M phases” value is “neither ginkgolide A nor ginkgolide B (100 μM) showed a significant effect”. Moreover, the “S-phase DNA” value in the data set with RMUG-L cells [7] (control 28.7%) worked out at 40.9%. Further, the “G0/G1 phase DNA” value in the data set with RMUG-L cells [7] (control 57%) is reported as 44%; in the data set with OVCA429 cells [5] (24 h, control 47.9%), 51.5%; in the data set on OVCA429 cells [5] (setting [9]), 65.1%. The “S-phase DNA contents” value in the data set on OVCA429 cells [5] (24 h, control 43%) came out at 35.8%; in the data set on OVCA429 cells [5] (setting [8]), 24%. Besides, the “cell cycle effect” value with OVCA429 cells [5] is “cell cycle blockage at G0/G1 to S phase checking point”. In addition, in data set [6], the average concentration measured is 4 ng/mL.

On to `O=c1c(O)c(-c2ccc(O)cc2)oc2cc(O)cc(O)c12` [kaempferol, reference compound], for which the “effect on cell proliferation (words)” value in the data set on RMUG-L cells [2] is “little effect”; in the data set on OVCA429 cells [3] (OVCA429, 10, 50 and 100 μM (extract: equivalent of ginkgolides), 72 h) it was “little effect”.

With `O=c1c(O)c(-c2ccc(O)c(O)c2)oc2cc(O)cc(O)c12` [quercetin, reference compound], the “effect on cell proliferation (words)” value in the data set with HOSE-E6E7 cells [1] and with RMUG-L cells [2] was “little effect” throughout. Further, the “effect on cell proliferation, exception to 'little effect'” value with OVCA429 cells [3] (OVCA429, 50 and 100 μM) is “OVCA429 with 50 and 100 μM quercetin”. The “inhibitory pattern” value in the data set with OVCA429 cells [3] is given as “significant inhibitory pattern”.
